Results reported in patent US20230167073A1 (Teijin Pharma Limited, priority 2020, published 2023).

target: T1, Human TRPC6 (Homo sapiens, UniProt Q9Y210); assay: Evaluation of TRPC6 channel inhibitory activity (1), FLIPR Calcium 5 Assay Kit, OAG stimulation (Compound Nos. 1-1293); assay type: cell-based; settings: Human TRPC6 stably-expressing cells, OAG 30 μM, FLIPR Calcium 5 Assay Kit; read-out: Inhibitory activity (pIC50 class) (converted)
T1 construct: expressed in transfected cells
T1 sequence (Q9Y210 1-931): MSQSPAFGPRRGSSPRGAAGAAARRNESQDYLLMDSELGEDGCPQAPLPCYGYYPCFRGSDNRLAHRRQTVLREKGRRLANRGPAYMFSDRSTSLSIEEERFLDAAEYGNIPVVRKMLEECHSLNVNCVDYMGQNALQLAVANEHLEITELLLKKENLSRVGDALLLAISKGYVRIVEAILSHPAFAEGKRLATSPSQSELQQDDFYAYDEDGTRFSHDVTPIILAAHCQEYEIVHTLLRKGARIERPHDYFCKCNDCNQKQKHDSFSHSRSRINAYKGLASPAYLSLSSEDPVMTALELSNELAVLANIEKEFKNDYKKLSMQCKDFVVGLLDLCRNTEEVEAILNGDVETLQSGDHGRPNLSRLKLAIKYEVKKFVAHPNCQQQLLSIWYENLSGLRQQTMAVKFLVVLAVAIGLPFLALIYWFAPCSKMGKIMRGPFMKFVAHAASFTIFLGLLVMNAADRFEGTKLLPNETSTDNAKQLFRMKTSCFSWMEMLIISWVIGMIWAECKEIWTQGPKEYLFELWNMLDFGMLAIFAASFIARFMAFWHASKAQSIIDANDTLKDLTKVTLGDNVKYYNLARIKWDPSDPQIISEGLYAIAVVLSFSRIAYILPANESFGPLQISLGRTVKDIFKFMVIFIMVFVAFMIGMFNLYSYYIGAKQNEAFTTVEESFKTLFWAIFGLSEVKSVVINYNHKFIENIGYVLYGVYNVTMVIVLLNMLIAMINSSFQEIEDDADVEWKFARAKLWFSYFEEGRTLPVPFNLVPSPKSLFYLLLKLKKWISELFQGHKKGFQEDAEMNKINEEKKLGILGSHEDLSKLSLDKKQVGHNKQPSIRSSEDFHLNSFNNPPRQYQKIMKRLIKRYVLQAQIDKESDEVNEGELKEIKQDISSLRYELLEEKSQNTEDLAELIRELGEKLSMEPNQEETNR
Method in brief: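 TRPC6 (human) stable cells, 24 h culture; Ca5 no-wash dye + probenecid 30 min; cpd 20 min; OAG 30 μM final; ΔF (pre-cpd min to post-OAG max); 0%/100% = no cpd / no cpd + no OAG; 4PL → pIC50, binned +/++/+++.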

Compound | IC50 [nM]
Cc1nc(Oc2cc(C#N)ccc2-c2ncc(CN)cn2)cc(N2C[C@@H](C)O[C@@H](C)C2)n1 [compound 709, 4-[5-(aminomethyl)pyrimidin-2-yl]-3-[6-[(2R,6S)-2,6-dimethylmorpholin-4-yl]-2-methylpyrimidin-4-yl]oxybenzonitrile] | 10 to 1000
Cc1nc(Oc2cc(C#N)ccc2-c2ncc(CN)cn2)cc(N2CCOC(C)(C)C2)n1 [compound 710, 4-[5-(aminomethyl)pyrimidin-2-yl]-3-[6-(2,2-dimethylmorpholin-4-yl)-2-methylpyrimidin-4-yl]oxybenzonitrile] | 10 to 1000
CC(C)c1cc(Oc2cc(C#N)ccc2-c2ccc(CN)n3ccnc23)n(C)n1 [compound 711, 4-[5-(aminomethyl)imidazo[1,2-a]pyridin-8-yl]-3-(2-methyl-5-propan-2-ylpyrazol-3-yl)oxybenzonitrile] | < 10
N#Cc1ccc(-c2ncc(CN)cn2)c(Oc2cnnc(C3CC3)c2)c1 [compound 713, 4-[5-(aminomethyl)pyrimidin-2-yl]-3-(6-cyclopropylpyridazin-4-yl)oxybenzonitrile] | 10 to 1000
N#Cc1ccc(-c2ncc(CN)cn2)c(Oc2cnnc(N3CCCC3)c2)c1 [compound 714, 4-[5-(aminomethyl)pyrimidin-2-yl]-3-(6-pyrrolidin-1-ylpyridazin-4-yl)oxybenzonitrile] | < 10
N#Cc1ccc(-c2ccc(CCN)cn2)c(Oc2nnc(N3CCOCC3)s2)c1 [compound 717, 4-[5-(2-aminoethyl)pyridin-2-yl]-3-[(5-morpholin-4-yl-1,3,4-thiadiazol-2-yl)oxy]benzonitrile] | 10 to 1000
N#Cc1ccc(-c2ccc(CCN)cn2)c(Oc2nnc(N3CCCC3)s2)c1 [compound 719, 4-[5-(2-aminoethyl)pyridin-2-yl]-3-[(5-pyrrolidin-1-yl-1,3,4-thiadiazol-2-yl)oxy]benzonitrile] | 10 to 1000
N#Cc1ccc(-c2ncc(CN)cn2)c(Oc2nnc(N3CCC3)s2)c1 [compound 720, 4-[5-(aminomethyl)pyrimidin-2-yl]-3-[[5-(azetidin-1-yl)-1,3,4-thiadiazol-2-yl]oxy]benzonitrile] | > 1000
N#Cc1ccc(-c2ncc(CN)cn2)c(Oc2nnc(N3CC(F)C3)s2)c1 [compound 721, 4-[5-(aminomethyl)pyrimidin-2-yl]-3-[[5-(3-fluoroazetidin-1-yl)-1,3,4-thiadiazol-2-yl]oxy]benzonitrile] | > 1000
N#Cc1ccc(-c2ncc(CCN)cn2)c(Oc2nnc(N3CCOCC3)s2)c1 [compound 723, 4-[5-(2-aminoethyl)pyrimidin-2-yl]-3-[(5-morpholin-4-yl-1,3,4-thiadiazol-2-yl)oxy]benzonitrile] | 10 to 1000
CCN(CC)c1nnc(Oc2cc(C#N)ccc2-c2ncc(CCN)cn2)s1 [compound 724, 4-[5-(2-aminoethyl)pyrimidin-2-yl]-3-[[5-(diethylamino)-1,3,4-thiadiazol-2-yl]oxy]benzonitrile] | < 10
N#Cc1ccc(-c2ncc(CCN)cn2)c(Oc2nnc(N3CCCC3)s2)c1 [compound 726, 4-[5-(2-aminoethyl)pyrimidin-2-yl]-3-[(5-pyrrolidin-1-yl-1,3,4-thiadiazol-2-yl)oxy]benzonitrile] | 10 to 1000
CN(C)c1nnc(Oc2cc(C#N)ccc2-c2ncc(CCN)cn2)s1 [compound 727, 4-[5-(2-aminoethyl)pyrimidin-2-yl]-3-[[5-(dimethylamino)-1,3,4-thiadiazol-2-yl]oxy]benzonitrile] | 10 to 1000
N#Cc1ccc(-c2ncc(CCN)cn2)c(Oc2nnc(-c3cccnc3)s2)c1 [compound 729, 4-[5-(2-aminoethyl)pyrimidin-2-yl]-3-[(5-pyridin-3-yl-1,3,4-thiadiazol-2-yl)oxy]benzonitrile] | 10 to 1000
Cn1nc(C2CC2)cc1Oc1cc(C#N)ccc1-c1cc(CN)cn2cnnc12 [compound 731, 4-[6-(aminomethyl)-[1,2,4]triazolo[4,3-a]pyridin-8-yl]-3-(5-cyclopropyl-2-methylpyrazol-3-yl)oxybenzonitrile] | > 1000
CCC(N)c1cnc(-c2ccc(C#N)cc2Oc2cc(-c3ccccn3)nn2C)nc1 (stereo not shown) [compound 734, 4-[5-(1-aminopropyl)pyrimidin-2-yl]-3-(2-methyl-5-pyridin-2-ylpyrazol-3-yl)oxybenzonitrile] | < 10
CCC(N)c1cnc(-c2ccc(C#N)cc2Oc2cc(C)nc(N3CCOCC3)c2)nc1 (stereo not shown) [compound 735, 4-[5-(1-aminopropyl)pyrimidin-2-yl]-3-(2-methyl-6-morpholin-4-ylpyridin-4-yl)oxybenzonitrile] | < 10
Cn1nc(C2CC2)cc1Oc1cc(C#N)ccc1-c1cc(CN)cn2ccnc12 [compound 736, 4-[6-(aminomethyl)imidazo[1,2-a]pyridin-8-yl]-3-(5-cyclopropyl-2-methylpyrazol-3-yl)oxybenzonitrile] | 10 to 1000

Further lines, results first:

IC50 [nM] | Compound
10 to 1000 | N#Cc1ccc(-c2ncc(CN)cn2)c(Oc2nnc(N3CCCCC3)s2)c1 [compound 707, 4-[5-(aminomethyl)pyrimidin-2-yl]-3-[(5-piperidin-1-yl-1,3,4-thiadiazol-2-yl)oxy]benzonitrile]
< 10 | Cc1nc(Oc2cc(C#N)ccc2-c2ncc(CN)cn2)cc(N2CCO[C@@H](C)C2)n1 [compound 708, 4-[5-(aminomethyl)pyrimidin-2-yl]-3-[2-methyl-6-[(2S)-2-methylmorpholin-4-yl]pyrimidin-4-yl]oxybenzonitrile]
< 10 | N#Cc1ccc(-c2ncc(CN)cn2)c(Oc2cnnc(N3CCCCC3)c2)c1 [compound 715, 4-[5-(aminomethyl)pyrimidin-2-yl]-3-(6-piperidin-1-ylpyridazin-4-yl)oxybenzonitrile]
10 to 1000 | CN(C)c1cc(Oc2cc(C#N)ccc2-c2ncc(CN)cn2)cnn1 [compound 716, 4-[5-(aminomethyl)pyrimidin-2-yl]-3-[6-(dimethylamino)pyridazin-4-yl]oxybenzonitrile]
< 10 | N#Cc1ccc(-c2ccc(CCN)cn2)c(Oc2nnc(C3CC3)s2)c1 [compound 718, 4-[5-(2-aminoethyl)pyridin-2-yl]-3-[(5-cyclopropyl-1,3,4-thiadiazol-2-yl)oxy]benzonitrile]
10 to 1000 | N#Cc1ccc(-c2ncc(CCN)cn2)c(Oc2nnc(N3CC(F)C3)s2)c1 [compound 722, 4-[5-(2-aminoethyl)pyrimidin-2-yl]-3-[[5-(3-fluoroazetidin-1-yl)-1,3,4-thiadiazol-2-yl]oxy]benzonitrile]
> 1000 | N#Cc1ccc(-c2ncc(CN)cn2)c(Oc2nnc(N3CCCC3)s2)c1 [compound 725, 4-[5-(aminomethyl)pyrimidin-2-yl]-3-[(5-pyrrolidin-1-yl-1,3,4-thiadiazol-2-yl)oxy]benzonitrile]
10 to 1000 | N#Cc1ccc(-c2ncc(CCN)cn2)c(Oc2nnc(C3CC3)s2)c1 [compound 728, 4-[5-(2-aminoethyl)pyrimidin-2-yl]-3-[(5-cyclopropyl-1,3,4-thiadiazol-2-yl)oxy]benzonitrile]
10 to 1000 | N#Cc1ccc(-c2ncc(CCN)cn2)c(Oc2nnc(-c3ccncc3)s2)c1 [compound 730, 4-[5-(2-aminoethyl)pyrimidin-2-yl]-3-[(5-pyridin-4-yl-1,3,4-thiadiazol-2-yl)oxy]benzonitrile]
10 to 1000 | Cn1nc(-c2ccccn2)cc1Oc1cc(C#N)ccc1-c1cc(CN)cn2cnnc12 [compound 732, 4-[6-(aminomethyl)-[1,2,4]triazolo[4,3-a]pyridin-8-yl]-3-(2-methyl-5-pyridin-2-ylpyrazol-3-yl)oxybenzonitrile]
> 1000 | Cc1cc(Oc2cc(C#N)ccc2-c2cc(CN)cn3cnnc23)cc(N2CCOCC2)n1 [compound 733, 4-[6-(aminomethyl)-[1,2,4]triazolo[4,3-a]pyridin-8-yl]-3-(2-methyl-6-morpholin-4-ylpyridin-4-yl)oxybenzonitrile]
< 10 | Cn1nc(-c2ccccn2)cc1Oc1cc(C#N)ccc1-c1cc(CN)cn2ccnc12 [compound 737, 4-[6-(aminomethyl)imidazo[1,2-a]pyridin-8-yl]-3-(2-methyl-5-pyridin-2-ylpyrazol-3-yl)oxybenzonitrile]
10 to 1000 | N#Cc1ccc(-c2ccc(CC3(N)COC3)cn2)c(Oc2cc(N3CCCC3)ncc2C#N)c1 [compound 738, 4-[2-[5-[(3-aminooxetan-3-yl)methyl]pyridin-2-yl]-5-cyanophenoxy]-6-pyrrolidin-1-ylpyridine-3-carbonitrile]
